What was measured:
[1] = Hygroscopicity by dynamic moisture sorption (DVS); assay type: physicochemical; conditions: DVS, listed as Mucate salt crystal form A-I
How it was run: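 Mass change of salt and free-form crystal samples recorded at 25° C over a 0% RH-95% RH-0% RH cycle. Steps were 10% RH (last step 5%) with a dm/dt equilibrium criterion of 0.002%/min.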

[2] = tested on: human lung cancer cells EBC-1; experiment: Efficacy in nude mouse tumor-bearing model of human lung cancer cells EBC-1; assay type: in vivo, Balb/c nude mouse
Text: In this assay, the free compound of formula (I) of the present application and different salts of the compound prepared in Examples 1, 2 and 5 were orally administered to a nude mouse tumor-bearing model of human lung cancer cells EBC-1 to study their effects on tumor growth.
Preparation of test compounds: an appropriate weight of the test compound (including the free form of the compound of formula (I) and different salts of the compound prepared in Examples 1, 2 and 5) was weighed, completely suspended/dissolved in an appropriate volume of 0.1% sodium carboxymethyl cellulose, stirred and vortexed to give a uniform solution or suspension.
Methods: All assays were authorized by the Animal Welfare Committee. EBC-1 in the logarithmic growth phase was inoculated into immune-deficient nude mice (BALB/c nude, female, 6-8 weeks old, weighing 18±2 g), subcutaneously on the right back, with a cell inoculation amount of 5×10^6/mouse. After the tumor grew to 150-200 mm^3, the animals were randomly divided into groups, 6 mice per group. The dose of each test substance was set at 15 mg/kg and 7.5 mg/kg (both based on the concentration of the effective formula (I) compound), and administered once a day for about 3 weeks. The test compounds were freshly prepared each day before use. During the assay, the tumor diameter was measured twice a week, and the mice were weighed at the same time. The calculation formula of tumor volume (TV) is: TV=1/2×a×b^2, where a and b represent length and width, respectively. The relative tumor volume (RTV) was calculated based on the measurement results, and the calculation formula is: RTV=Vt/V0, wherein V0 is the tumor volume measured at the time of cage grouping and dosing initiation (i.e., d0), and Vt is the tumor volume at each measurement. The evaluation index of antitumor activity is the relative tumor proliferation rate T/C (%), calculated as follows: T/C (%)=(TRTV/CRTV)×100%, TRTV: RTV of the treatment group; CRTV: RTV of the negative control group. T and C represent the average tumor volume at a certain time point in the drug administration group and the control group, respectively.

[3] = Dynamic solubility in water, SGF, FaSSIF and FeSSIF; assay type: physicochemical; design: S (dynamic solubility): unit not given here; conditions: listed as Mucate salt crystal form A-I; for S (dynamic solubility): 37° C., feed 10 mg/mL
Experimental: Biological solvent Preparation • 1. […] 67.5 μL of concentrated hydrochloric acid (12 M) was added and the mixture was adjusted to a pH value of 1.8 with 1 M hydrochloric acid or 1 M NaOH solution. Purified water was added to make up to volume. • 2. Preparation of Fasted State Simulated Intestinal Fluid (FaSSIF): 0.17 g of anhydrous NaH2PO4, 0.021 g of NaOH, and 0.31 g of NaCl were weighed into a 50-mL volumetric flask. About 48 mL of purified water was added to dissolve the mixture completely, and the solution was adjusted to a pH value of 6.5 with 1 M hydrochloric acid or 1 M NaOH solution. Purified water was added to make up to volume. 0.11 g of SIF powder was added and dissolved completely. • 3. Preparation of Fed State Simulated Intestinal Fluid (FeSSIF): 0.41 mL of glacial acetic acid, 0.20 g of NaOH and 0.59 g of NaCl were weighed into a 50-mL volumetric flask. About 48 mL of purified water was added to dissolve the mixture completely, and the solution was adjusted to a pH value of 5.0 with 1 M hydrochloric acid or 1 M NaOH solution. Purified water was added to make up to volume. 0.56 g of SIF powder was added and dissolved completely.
The dynamic solubility of the free state, the mucate salt crystal form A-I, the p-toluenesulfonate salt crystal form A-II, the di-p-toluenesulfonate salt crystal form A-IV and the phosphate salt crystal form A-V of the compound of formula (I) in water and three biological solvents was evaluated.
The samples at each time point were centrifuged and filtered (0.45 μm PTFE filter head), and the HPLC concentration and pH value of the filtrate were determined.

[4] = Solid-state stability evaluation (XRPD, HPLC); assay type: physicochemical; conditions: listed as Mucate salt crystal form A-I
Experimental: The following 6 test samples were placed under 25° C./60% RH and 40° C./75% RH conditions for 1 week, and then the physical and chemical stability of the samples was tested by XRPD and HPLC.
At the same time, after the p-toluenesulfonate salt crystal form A-II and crystal form B-III solids were placed at 80° C. for 24 hours, the physical and chemical stability of the samples were tested by XRPD and HPLC.

## O=C(Nc1ccc(F)cc1)C1(C(=O)Nc2ccc(Oc3ccnc4cc(OCCCN5CCOCC5)c5c(c34)OCCO5)c(F)c2)CC1 [Example 1, N-(3-fluoro-4-((5-(3-morpholinopropoxy)-2,3-dihydro-[1,4]dioxano[2,3-f]quinolin-10-yl)oxy)phenyl)-N-(4-fluorophenyl)cyclopropane-1,1-dicarboxamide]
[1]; 25° C./80% RH
  Moisture adsorption (25° C./80% RH): 2.09%
[1]; 25° C.
  Hygroscopicity: Hygroscopic
[2]; 7.5 mg/kg oral once a day, day 3
  T/C (relative tumor proliferation rate): 71.1%
[2]; 7.5 mg/kg oral once a day, day 7
  T/C (relative tumor proliferation rate): 60.2%
[2]; 7.5 mg/kg oral once a day, day 10
  T/C (relative tumor proliferation rate): 49.9%
[2]; 7.5 mg/kg oral once a day, day 14
  T/C (relative tumor proliferation rate): 46.9%
[2]; 7.5 mg/kg oral once a day, day 18
  T/C (relative tumor proliferation rate): 47.4%
[2]; 7.5 mg/kg oral once a day, day 21
  T/C (relative tumor proliferation rate): 43.73%
[2]; 15 mg/kg oral once a day, day 3
  T/C (relative tumor proliferation rate): 66.3%
[2]; 15 mg/kg oral once a day, day 7
  T/C (relative tumor proliferation rate): 40.4%
[2]; 15 mg/kg oral once a day, day 10
  T/C (relative tumor proliferation rate): 30.9%
[2]; 15 mg/kg oral once a day, day 14
  T/C (relative tumor proliferation rate): 25.3%
[2]; 15 mg/kg oral once a day, day 18
  T/C (relative tumor proliferation rate): 25.4%
[2]; 15 mg/kg oral once a day, day 21
  T/C (relative tumor proliferation rate): 19.41%
[3]; FaSSIF, 1 hour
  S (dynamic solubility): 0.0036
  pH of the filtrate: 6.3
[3]; FaSSIF, 2 hours
  S (dynamic solubility): 0.0048
  pH of the filtrate: 6.2
[3]; FaSSIF, 4 hours
  S (dynamic solubility): 0.0042
  pH of the filtrate: 6.2
[3]; FaSSIF, 24 hours
  S (dynamic solubility): 0.0070
  pH of the filtrate: 5.5
[3]; FeSSIF, 1 hour
  S (dynamic solubility): 1.3
  pH of the filtrate: 4.9
[3]; FeSSIF, 2 hours
  S (dynamic solubility): 1.6
  pH of the filtrate: 4.9
[3]; FeSSIF, 4 hours
  S (dynamic solubility): 1.8
  pH of the filtrate: 4.9
[3]; FeSSIF, 24 hours
  S (dynamic solubility): 1.8
  pH of the filtrate: 4.9
[3]; H2O, 1 hour
  S (dynamic solubility): 0.11
  pH of the filtrate: 4.5
[3]; H2O, 2 hours
  S (dynamic solubility): 0.11
  pH of the filtrate: 4.4
[3]; H2O, 4 hours
  S (dynamic solubility): 0.13
  pH of the filtrate: 4.8
[3]; H2O, 24 hours
  S (dynamic solubility): 0.11
  pH of the filtrate: 4.7
[3]; SGF, 1 hour
  S (dynamic solubility): 5.4
  pH of the filtrate: 3.1
[3]; SGF, 2 hours
  S (dynamic solubility): 5.2
  pH of the filtrate: 3.1
[3]; SGF, 4 hours
  S (dynamic solubility): 5.1
  pH of the filtrate: 3.1
[3]; SGF, 24 hours
  S (dynamic solubility): 5.3
  pH of the filtrate: 3.2
[4]; 25° C./60% RH, 1 week
  Purity: 99.54 area %
  Purity/initial purity: 100.0%
[4]; 40° C./75% RH, 1 week
  Purity: 99.56 area %
  Purity/initial purity: 100.0%
[4]; Starting
  Purity: 99.56 area %

Source: patent publication US20260176285A1, “SALT OF DIOXANE QUINOLINE COMPOUND, CRYSTAL FORM THEREOF, PREPARATION METHODS THEREFOR AND USES THEREOF” (Beijing Scitech-MQ Pharmaceuticals Limited, priority 2022, published 2026)
